Test results published in PubChem BioAssay AID328 (DTP/NCI, 2004).
Several values for one entry are separate records, joined by “and”; a condition that tells them apart may be missing. Equal values may be shown once. Inconclusive results and toxic doses are left out.

System: BDF1 mice, P388 leukemia ip, median survival T/C
Experiment: NCI In Vivo Anticancer Drug Screen. Data for tumor model P388 Leukemia (intraperitoneal) in B6D2F1 (BDF1) mice
Conditions: endpoint: median survival time, higher = longer survival
Outline: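 Each value expresses how treatment altered survival: treated-mouse outcome over vehicle-mouse outcome, both groups bearing the transplanted tumour.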

## COC(=O)[C@@H](O)[C@](O)(CCC(C)C)C(=O)O[C@@H]1C(OC)=C[C@]23CCCN2CCc2cc4c(cc2[C@H]13)OCO4
dose: 0.25 mg/kg/injection, schedule: Q01DX009 (ip), vehicle: saline
  T/C: 115 % of control
dose: 0.25 mg/kg/injection, schedule: Q03HX008 (ip), vehicle: saline
  T/C: 115 % of control
dose: 0.25 mg/kg/injection, schedule: Q03HX016 (ip), vehicle: saline
  T/C: 120 % of control
dose: 0.38 mg/kg/injection, schedule: Q01DX010 (ip), vehicle: saline
  T/C: 118 % of control
dose: 0.41 mg/kg/injection, schedule: Q01DX009 (ip), vehicle: saline
  T/C: 108 % of control
dose: 0.5 mg/kg/injection, schedule: Q01DX006 (iv), vehicle: saline
  T/C: 100 % of control
dose: 0.5 mg/kg/injection, schedule: Q01DX009 (ip), vehicle: saline
  T/C: 110 % of control
dose: 0.5 mg/kg/injection, schedule: Q01DX009 (oral), vehicle: saline
  T/C: 110 % of control
dose: 0.5 mg/kg/injection, schedule: Q01DX009 (sc), vehicle: saline
  T/C: 110 % of control
dose: 0.5 mg/kg/injection, schedule: Q03HX008 (ip), vehicle: saline
  T/C: 110 % of control
dose: 0.5 mg/kg/injection, schedule: Q03HX016 (ip), vehicle: saline
  T/C: 120 % of control
dose: 0.62 mg/kg/injection, schedule: Q01DX009 (ip), vehicle: saline
  T/C: 108 % of control
dose: 1.0 mg/kg/injection, schedule: Q01DX006 (iv), vehicle: saline
  T/C: 110 % of control
dose: 1.0 mg/kg/injection, schedule: Q01DX009 (ip), vehicle: saline
  T/C: 120 % of control
dose: 1.0 mg/kg/injection, schedule: Q01DX009 (oral), vehicle: saline
  T/C: 110 % of control
dose: 1.0 mg/kg/injection, schedule: Q01DX009 (sc), vehicle: saline
  T/C: 110 % of control
dose: 1.0 mg/kg/injection, schedule: Q03HX008 (ip), vehicle: saline
  T/C: 120 % of control
dose: 1.0 mg/kg/injection, schedule: Q03HX024 (ip), vehicle: saline
  T/C: 200 % of control
dose: 1.0 mg/kg/injection, schedule: Q04DX003 (ip), vehicle: saline
  T/C: 110 % of control
dose: 1.5 mg/kg/injection, schedule: Q01DX009 (ip), vehicle: saline
  T/C: 118 % of control
dose: 1.87 mg/kg/injection, schedule: Q01DX009 (ip), vehicle: water
  T/C: 150 % of control and 161 % of control
dose: 2.0 mg/kg/injection, schedule: Q01DX001 (ip), vehicle: saline
  T/C: 100 % of control
dose: 2.0 mg/kg/injection, schedule: Q01DX001 (iv), vehicle: saline
  T/C: 110 % of control
dose: 2.0 mg/kg/injection, schedule: Q01DX001 (oral), vehicle: saline
  T/C: 110 % of control
dose: 2.0 mg/kg/injection, schedule: Q01DX001 (sc), vehicle: saline
  T/C: 110 % of control
dose: 2.0 mg/kg/injection, schedule: Q01DX006 (iv), vehicle: saline
  T/C: 120 % of control
dose: 2.0 mg/kg/injection, schedule: Q01DX009 (ip), vehicle: saline
  T/C: 120 % of control
dose: 2.0 mg/kg/injection, schedule: Q01DX009 (oral), vehicle: saline
  T/C: 110 % of control
dose: 2.0 mg/kg/injection, schedule: Q01DX009 (sc), vehicle: saline
  T/C: 115 % of control
dose: 2.0 mg/kg/injection, schedule: Q03HX016 (ip), vehicle: saline
  T/C: 177 % of control
dose: 2.0 mg/kg/injection, schedule: Q03HX024 (ip), vehicle: saline
  T/C: 222 % of control
dose: 2.0 mg/kg/injection, schedule: Q04DX003 (ip), vehicle: saline
  T/C: 115 % of control
dose: 2.0 mg/kg/injection, schedule: Q08DX002 (ip), vehicle: saline
  T/C: 110 % of control
dose: 3.0 mg/kg/injection, schedule: Q01DX010 (ip), vehicle: saline
  T/C: 181 % of control
dose: 3.75 mg/kg/injection, schedule: Q01DX009 (ip), vehicle: water
  T/C: 172 % of control and 188 % of control
dose: 4.0 mg/kg/injection, schedule: Q01DX001 (ip), vehicle: saline
  T/C: 110 % of control
dose: 4.0 mg/kg/injection, schedule: Q01DX001 (iv), vehicle: saline
  T/C: 105 % of control
dose: 4.0 mg/kg/injection, schedule: Q01DX001 (oral), vehicle: saline
  T/C: 110 % of control
dose: 4.0 mg/kg/injection, schedule: Q01DX001 (sc), vehicle: saline
  T/C: 110 % of control
dose: 4.0 mg/kg/injection, schedule: Q03HX008 (ip), vehicle: saline
  T/C: 166 % of control
dose: 4.0 mg/kg/injection, schedule: Q04DX003 (ip), vehicle: saline
  T/C: 110 % of control
dose: 4.0 mg/kg/injection, schedule: Q08DX002 (ip), vehicle: saline
  T/C: 105 % of control
dose: 6.0 mg/kg/injection, schedule: Q01DX009 (ip), vehicle: saline
  T/C: 163 % of control
dose: 6.0 mg/kg/injection, schedule: Q01DX010 (ip), vehicle: saline
  T/C: 182 % of control
dose: 7.5 mg/kg/injection, schedule: Q01DX009 (ip), vehicle: saline
  T/C: 195 % of control
dose: 7.5 mg/kg/injection, schedule: Q01DX009 (ip), vehicle: water
  T/C: 266 % of control and 272 % of control
dose: 8.0 mg/kg/injection, schedule: Q01DX001 (ip), vehicle: saline
  T/C: 110 % of control
dose: 8.0 mg/kg/injection, schedule: Q01DX001 (iv), vehicle: saline
  T/C: 110 % of control
dose: 8.0 mg/kg/injection, schedule: Q01DX001 (oral), vehicle: saline
  T/C: 105 % of control
dose: 8.0 mg/kg/injection, schedule: Q01DX001 (sc), vehicle: saline
  T/C: 100 % of control
dose: 8.0 mg/kg/injection, schedule: Q01DX006 (iv), vehicle: saline
  T/C: 188 % of control
dose: 8.0 mg/kg/injection, schedule: Q01DX009 (ip), vehicle: saline
  T/C: 235 % of control and 172 % of control and 222 % of control
dose: 8.0 mg/kg/injection, schedule: Q01DX009 (oral), vehicle: saline
  T/C: 200 % of control
dose: 8.0 mg/kg/injection, schedule: Q01DX009 (sc), vehicle: saline
  T/C: 200 % of control and 205 % of control
dose: 12.0 mg/kg/injection, schedule: Q01DX010 (ip), vehicle: saline
  T/C: 208 % of control
dose: 15.0 mg/kg/injection, schedule: Q01DX009 (ip), vehicle: water
  T/C: 105 % of control
dose: 16.0 mg/kg/injection, schedule: Q01DX001 (ip), vehicle: saline
  T/C: 110 % of control
dose: 16.0 mg/kg/injection, schedule: Q01DX001 (iv), vehicle: saline
  T/C: 120 % of control
dose: 16.0 mg/kg/injection, schedule: Q01DX001 (oral), vehicle: saline
  T/C: 115 % of control
dose: 16.0 mg/kg/injection, schedule: Q01DX001 (sc), vehicle: saline
  T/C: 110 % of control
dose: 16.0 mg/kg/injection, schedule: Q01DX009 (ip), vehicle: saline
  T/C: 305 % of control and 209 % of control
dose: 16.0 mg/kg/injection, schedule: Q01DX009 (oral), vehicle: saline
  T/C: 161 % of control
dose: 16.0 mg/kg/injection, schedule: Q01DX009 (sc), vehicle: saline
  T/C: 105 % of control
dose: 16.0 mg/kg/injection, schedule: Q04DX003 (ip), vehicle: saline
  T/C: 150 % of control
dose: 24.0 mg/kg/injection, schedule: Q01DX010 (ip), vehicle: saline
  T/C: 252 % of control
dose: 32.0 mg/kg/injection, schedule: Q08DX002 (ip), vehicle: saline
  T/C: 111 % of control
dose: 125.0 micrograms/kg/injection, schedule: Q03HX024 (ip), vehicle: saline
  T/C: 100 % of control
dose: 250.0 micrograms/kg/injection, schedule: Q03HX024 (ip), vehicle: saline
  T/C: 110 % of control
dose: 500.0 micrograms/kg/injection, schedule: Q03HX024 (ip), vehicle: saline
  T/C: 120 % of control
